Entries after “also recorded” stand apart in the source; their conditions may differ. Counter-ions that a name gives are not always drawn.
Columns and labels:
lipocalin-2 = test: ELISA monitoring of lipocalin-2 in feces; format: in vivo, mice; conditions: WT animals treated with NOD agonists
Protocol: A. Enumeration of bacterial colonies in splenocytes 48 hrs post-CTX therapy in various mouse backgrounds. Splenic cells (left panel) and mesenteric LN (middle panel) harvested from C57BL/6 WT or NOD1^−/−×NOD2^−/− mice were cultured in anaerobic conditions for 48 hours. Bacterial outgrowth was enumerated (number of colonies/plate and frequencies of positive plates/animal (right panel)) and eventually characterized by mass spectrometry for bacterial identification. B. Flow cytometric analyses of pTH17 cells. CD4^+ T cells co-expressing IFN[…]γ in the gate of live IL-17+ T splenocytes in WT versus NOD1 or NOD2 deficient mice C. Idem as in B. but experiment performed in WT animals treated with NOD agonists (MDP and TriDAP) according to the experimental setting aligned in the upper part of the graph. D. ELISA monitoring of lipocalin-2 in the feces of mice according to the experimental setting aligned in C. A representative experiment is shown for A and D. Concatenated data from 2-3 individual experiments including 3 mice/group are depicted in B-C. Anova statistical analyses: *p<0.05, **p<0.01, ***p<0.001.

splenic pTh17 cells = test: Flow cytometry of splenic pTh17 / TH1 / Tc1 cells; conditions: for CTX-mediated pTH17 in the spleen: WT animals treated with NOD agonists
Protocol: For cross-linking experiment, 2×10^5 total splenocytes per well (after red cell lysis) were incubated in MaxiSorp plates (Nunc) precoated with anti-CD3ε mAb (145-2C11) (0.5 μg per well; eBioscience) and/or anti-CD28 mAb (37.51) (2 μg/ml; BD). The supernatants were assayed at 48 h by ELISA for mouse IL-17A (eBioscience) and IFNγ (BD). […] For intracellular, cells were incubated for 4 h at 37° C. with 50 ng/ml of PMA, 1 μg/ml of ionomycin and BD Golgi STOP™. After membrane staining, cells were stained with anti-IL-17A, IFNγ, T-bet and RORγt using eBioscience FoxP3/Transcription factor staining buffer set.

[1] = test system: small intestine epithelium; conditions: mouse, in vivo
Protocol: The whole small intestine (duodenum, jejunum and ileum) was removed, cleaned from fecal content and fixed in 4% of PFA for 1 h. Re-hydration of the tissue was performed in 15% sucrose for 1 h and in 30% sucrose overnight. Depending on the experiment, the small intestine was entirely rolled, or cut into small pieces, then embedded in optimum cutting temperature (OCT) compound (Sakura), snap frozen and longitudinal or transversal […] were prepared.
For histological analyses, the longitudinal sections were counterstained with hematoxilin and eosin. For the histological quantitative analyses, inflammatory foci, altered villi and the thickness of lamina propria were scored for each section, while the number of goblet cells was counted for each villus. […] Then, a rabbit polyclonal antibody against the lysozyme protein (1:500 for 1 h, Thermo Scientific) and ALEXA FLUOR 488 Fragment of goat anti-rabbit IgG (1:300 for 1 h, Molecular Probes) were used. All steps were performed at room temperature. Lysozyme-positive areas were quantified on mosaic images using the Histolab software (Microvision Instruments). The quantification of Paneth cells was performed measuring the average area of the Lysozyme-positive clusters (group of Paneth cells) as well as the emission/μm^2 of those clusters (not shown).

commensal bacteria = format: in vivo, mice; conditions: 48 h after treatment
Protocol: Mesenteric lymph nodes and spleens were aseptically removed, smashed in PBS and plated onto COS agar plates (BioMérieux), for aerobic and anaerobic growth. After 48 h of culture, single colonies were isolated and stocked in glycerol at −80° C.
(§1) Serial dilutions of feces from naïve mice or tumor bearers treated with NaCl or CTX, vancomycin or broad spectrum antibiotics (ATB) (ampicillin+streptomycin+colistin), were plated onto COS agar plates and after 48 h, single colonies were isolated and Gram staining was performed. The identification of specific bacteria was accomplished through the combination of morphological tests and the analysis through VITEK® automated system (BioMérieux, France) and verified in mass spectrometry (MALDI-TOF, see below) performed at Pasteur Institute, Paris, France.

splenocytes = test: TCR cross-linking of splenocytes, IL-17 and IFNγ ELISA; format: in vivo, mice
MCA205 sarcomas = format: in vivo, C57BL/6 mice
[2] = test system: tumor-infiltrating lymphocytes; test: Flow cytometry of tumor-infiltrating lymphocytes; format: in vivo, mice
MC38-OVAdim tumor cells = test: OVA vaccine + CTX, rechallenge with MC38-OVAdim tumor cells; format: in vivo, C56BL/6 mice; conditions: antibiotics 20 days, rechallenge at day 50
Protocol: FIG. 38: Anticancer vaccines combined with CTX promote a long lasting anticancer immunity which depends on gut Gram negative bacteria. A. Experimental setting. C56BL/6 mice were treated with broad spectrum ATB (ampicilline, colistine, streptomycine) or vancomycine (which only kills Gram+ bacteria) or colistine (which only kills Gram− bacteria) for 9 days, received one ip, injection of CTX (100 mg/kg), followed 3 days later by vaccination with OVA protein in CpG adjuvants (or mock vaccines). ATB were stopped after 20 days and animals were left untreated under observation for 1 month. At day 50, all mice were rechallenged with a lethal dose of 10× times the MTD of MC38-OVA^dim tumor cells sc. B. Animals were scored on the basis of tumor outgrowth (featuring no or weak memory T cell response). The percentages of tumor-free mice was recorded for 2 experiments comprising 5 mice/group.*Anova test: p<0.05.

fecal commensal bacteria = test: Culture of fecal commensals under antibiotics; format: in vivo, mice; conditions: antibiotic in drinking water, tumor bearers
Protocol: Mice were treated with antibiotics 2-3 weeks before tumor implantation and continued until the end of the experiment. A mix of ampicillin (1 mg/ml)+streptomycin (5 mg/ml)+colistin (1 mg/ml) (Sigma-Aldrich) or vancomycin (0.25 mg/ml) or colistin alone (2·10^3 U/ml) were added in sterile drinking water. Solutions and bottles were changed 2-3 times a week.
as §1

lung adenocarcinoma = test: Lung adenocarcinoma-bearing KP mice treated with chemotherapy
Protocol: Mice were either left untreated or received chemotherapy (d84, d91 and d98) in absence or presence of 0.25 mg/ml vancomycin (mixed into drinking water starting on d77 and until the end of the experiment; antibiotic-containing water was replaced biweekly). Tumor volumes were quantified on d73 and 100 (equivalent of ‘pre’ and ‘post’ chemotherapy) in anesthetized mice by noninvasive imaging as described before (Cortez-Retamozo et al., 2013).

## CC(=O)N[C@H]1C(O)O[C@H](CO)[C@@H](O)[C@@H]1O[C@H](C)C(=O)N[C@@H](C)C(=O)N[C@H](CCC(=O)O)C(N)=O (mixture of isomers) [myramyl dipeptide]
lipocalin-2
  release of the antimicrobial peptide lipocalin-2 in stools: promoting the release
Splenic pTh17 cells
  CTX-mediated pTH17 in the spleen: reducing

## C[C@H](N)C(=O)N[C@H](CCC(=O)NC(CCCC(N)C(=O)O)C(=O)O)C(=O)O (some centres unmarked) [TriDAP]
lipocalin-2
  release of the antimicrobial peptide lipocalin-2 in stools: promoting the release
Splenic pTh17 cells
  CTX-mediated pTH17 in the spleen: reducing

## COc1cccc2c1C(=O)c1c(O)c3c(c(O)c1C2=O)C[C@@](O)(C(=O)CO)C[C@@H]3O[C@H]1C[C@H](N)[C@H](O)[C@H](C)O1 [doxorubicin, Doxorubicin hydrochloride]
[1]
  inflammatory status of the gut epithelial barrier (histology): shortening of small intestinal villi, discontinuities of the epithelial barrier, interstitial edema and focal accumulation of mononuclear cells in the lamina propria
Commensal bacteria
  translocation of commensal bacteria into mesenteric lymph nodes and spleens, compared with CTX: less so
splenocytes; day 7 after treatment
  polarization of splenic CD4+ T cells towards Th1 and Th17 pattern: not found
MCA205 sarcomas; SPF, ATB-treated and germ-free mice
  dependence of tumor growth reduction on gut commensals: does not require gut commensals for reducing tumor growth
Splenic pTh17 cells; Doxo i.p., splenocytes 7 days later
  induction of pTh17 cells in the spleen: failed to induce pTh17 cells in the spleen

## CN[C@H](CC(C)C)C(=O)N[C@H]1C(=O)N[C@@H](CC(N)=O)C(=O)N[C@H]2C(=O)N[C@H]3C(=O)N[C@H](C(=O)N[C@H](C(=O)O)c4cc(O)cc(O)c4-c4cc3ccc4O)[C@H](O)c3ccc(c(Cl)c3)Oc3cc2cc(c3O[C@@H]2O[C@H](CO)[C@@H](O)[C@H](O)[C@H]2O[C@H]2C[C@](C)(N)[C@H](O)[C@H](C)O2)Oc2ccc(cc2Cl)[C@H]1O [vancomycin]
splenocytes; antibiotic in drinking water
  effect on CTX-induced Th17 conversion: reduced
MCA205 sarcomas; 3 week conditioning with antibiotic
  effect on the anti-tumor efficacy of CTX against MCA205 sarcoma: compromised; also recorded: reduced
[2]; MCA205 tumors, 8 days post-CTX
  frequencies of tumor-infiltrating CD3+ T cells and Th1 cells: reduced
[2]; chemotherapy-treated tumors
  γδT17 cells in tumor beds post-therapy: devoid
MC38-OVAdim tumor cells
  effect on long term protection of an OVA-based cancer vaccine + CTX against lethal challenge: did not prevent
Fecal commensal bacteria
  repertoire of commensal bacteria in feces: biased the repertoire of commensal bacteria towards distinct commensal species
Splenic pTh17 cells; MCA205 tumor bearers, 7 days after CTX
  effect on CTX-induced accumulation/differentiation of pTh17 in the spleen: prevented; also recorded: blunts
Lung adenocarcinoma; Chemo+Vanco
  intratumoral CD8+ T effector/Foxp3+ regulatory T cell ratio: reduced
Lung adenocarcinoma; vancomycin 0.25 mg/ml in drinking water, oxaliplatin plus CTX
  effect on the anticancer efficacy of CTX-based chemotherapy: inhibitory role; also recorded: compromised

## colistin
MC38-OVAdim tumor cells
  effect on long term protection of an OVA-based cancer vaccine + CTX against lethal challenge: did
Fecal commensal bacteria
  repertoire of commensal bacteria in feces: promoted the outgrowth of E. faecalis

From patent publication US10646521B2, “Microbiota composition, as a marker of responsiveness to chemotherapy, and use of microbial modulators (pre-, pro- or synbiotics) for improving the efficacy of a cancer treatment” (INSTITUT GUSTAVE ROUSSY, priority 2013, dated 2020)
